Test results reported in ChEMBL document CHEMBL4229497, “Design and synthesis of benzofuro[3,2-b]pyridin-2(1H)-one derivatives as anti-leukemia agents by inhibiting Btk and PI3Kδ” (Bioorg Med Chem, 2018).
The source made the active and inactive calls. No cut-off for these calls is given here.

Columns and labels:
[1] = biological target: Phosphatidylinositol 4,5-bisphosphate 3-kinase catalytic subunit beta isoform (Homo sapiens, UniProt P42338); assay: Inhibition of PI3Kbeta (unknown origin)
[2] = biological target: Phosphatidylinositol 4,5-bisphosphate 3-kinase catalytic subunit alpha isoform (Homo sapiens, UniProt P42336); assay: Inhibition of PI3Kalpha (unknown origin)
[3] = biological target: T1, Phosphatidylinositol 4,5-bisphosphate 3-kinase catalytic subunit gamma isoform (Homo sapiens, UniProt P48736); assay: Inhibition of PI3Kgamma (unknown origin)
T1 sequence (P48736 whole entry, canonical isoform): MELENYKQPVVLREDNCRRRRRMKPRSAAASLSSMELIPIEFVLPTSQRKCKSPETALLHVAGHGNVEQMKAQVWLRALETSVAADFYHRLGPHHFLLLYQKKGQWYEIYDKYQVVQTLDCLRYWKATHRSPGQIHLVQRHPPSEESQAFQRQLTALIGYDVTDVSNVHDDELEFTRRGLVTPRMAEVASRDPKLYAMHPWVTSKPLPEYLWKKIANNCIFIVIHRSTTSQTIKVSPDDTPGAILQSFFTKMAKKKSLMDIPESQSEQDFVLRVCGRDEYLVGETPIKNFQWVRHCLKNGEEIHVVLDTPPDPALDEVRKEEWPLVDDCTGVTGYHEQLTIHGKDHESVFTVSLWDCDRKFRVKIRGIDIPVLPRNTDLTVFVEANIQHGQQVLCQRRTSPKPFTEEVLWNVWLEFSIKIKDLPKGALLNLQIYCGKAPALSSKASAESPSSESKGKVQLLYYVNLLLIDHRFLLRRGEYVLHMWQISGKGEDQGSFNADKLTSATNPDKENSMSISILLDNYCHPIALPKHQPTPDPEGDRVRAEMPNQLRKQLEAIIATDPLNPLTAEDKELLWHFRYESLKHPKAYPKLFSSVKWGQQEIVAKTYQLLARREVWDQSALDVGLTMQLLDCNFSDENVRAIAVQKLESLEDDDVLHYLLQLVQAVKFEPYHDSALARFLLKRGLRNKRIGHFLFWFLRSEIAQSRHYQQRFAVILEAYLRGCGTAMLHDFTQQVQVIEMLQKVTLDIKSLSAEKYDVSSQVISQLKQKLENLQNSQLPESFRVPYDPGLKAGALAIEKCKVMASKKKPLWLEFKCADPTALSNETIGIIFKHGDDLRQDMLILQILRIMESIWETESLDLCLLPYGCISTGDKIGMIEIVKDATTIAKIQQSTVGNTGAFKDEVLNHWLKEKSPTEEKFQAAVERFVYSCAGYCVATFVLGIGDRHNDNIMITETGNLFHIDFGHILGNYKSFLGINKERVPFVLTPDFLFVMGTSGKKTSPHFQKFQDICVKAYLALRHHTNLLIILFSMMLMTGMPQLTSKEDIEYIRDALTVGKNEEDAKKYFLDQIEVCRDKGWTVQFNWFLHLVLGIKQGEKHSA

[4] = biological target: PI3-kinase p110-delta/p85-alpha (Homo sapiens) (UniProt P27986+O00329); assay: Inhibition of recombinant human full length N-terminal His-tagged PI3K p110delta/p85alpha at 200 nM using lipid substrate after 60 mins by ADP-Glo assay relative to control; format: protein-complex assay
HL-60 [5] = assay: Antiproliferative activity against human HL60 cells after 48 hrs by MTT assay; format: functional, cell-based; settings: HL-60, 48 h
[6] = biological target: Tyrosine-protein kinase BTK (Homo sapiens, UniProt Q06187); assay: Inhibition of recombinant full length human N-terminal His tagged BTK expressed in baculovirus infected Sf9 cells using poly (4:1 Glu, Tyr) as substrate after 60 mins by ADP-Glo assay
Sequence of Tyrosine-protein kinase BTK (Q06187 whole entry): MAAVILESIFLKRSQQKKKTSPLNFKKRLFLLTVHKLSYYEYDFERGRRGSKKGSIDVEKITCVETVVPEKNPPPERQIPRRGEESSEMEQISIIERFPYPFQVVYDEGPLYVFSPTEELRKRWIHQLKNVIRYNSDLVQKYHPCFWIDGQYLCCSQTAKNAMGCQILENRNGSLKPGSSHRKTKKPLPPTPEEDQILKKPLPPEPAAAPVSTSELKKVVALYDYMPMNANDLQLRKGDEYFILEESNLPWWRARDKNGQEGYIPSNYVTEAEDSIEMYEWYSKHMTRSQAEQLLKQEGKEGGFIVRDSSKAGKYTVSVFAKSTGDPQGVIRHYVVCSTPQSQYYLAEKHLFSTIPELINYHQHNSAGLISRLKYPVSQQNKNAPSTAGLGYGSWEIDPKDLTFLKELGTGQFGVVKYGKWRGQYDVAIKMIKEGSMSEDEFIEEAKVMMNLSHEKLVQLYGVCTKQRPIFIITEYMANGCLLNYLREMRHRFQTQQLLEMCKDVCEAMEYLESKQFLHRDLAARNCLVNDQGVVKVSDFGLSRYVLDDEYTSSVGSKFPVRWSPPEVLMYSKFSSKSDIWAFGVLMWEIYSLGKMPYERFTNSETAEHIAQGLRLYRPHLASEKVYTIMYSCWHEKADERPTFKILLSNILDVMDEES

Raji [7] = assay: Antiproliferative activity against human Raji cells after 48 hrs by MTT assay; format: functional, cell-based
K562 [8] = assay: Antiproliferative activity against human K562 cells after 48 hrs by MTT assay; format: functional, cell-based; settings: K562, 48 h
Raji [9] = assay: Antiproliferative activity against human Raji cells at 40 uM after 48 hrs by MTT assay relative to control; format: functional
HL-60 [10] = assay: Antiproliferative activity against human HL60 cells at 40 uM after 48 hrs by MTT assay relative to control; format: functional
K562 [11] = assay: Antiproliferative activity against human K562 cells at 40 uM after 48 hrs by MTT assay relative to control; format: functional
K562 [12] = assay: Inhibition of PI3K/Akt/mTOR pathway in human K562 cells assessed as reduction in Akt phosphorylation at Ser-473 residue at 1 uM after 24 hrs by Western blot analysis; format: cell-based
[13] = Inhibition of PI3K (unknown origin); design: species or system Homo sapiens
[14] = biological target: Serine/threonine-protein kinase mTOR (Homo sapiens, UniProt P42345); assay: Inhibition of recombinant human N-terminal FLAG-tagged mTOR (1362-end residues)
[15] = biological target: T1, Phosphatidylinositol 4,5-bisphosphate 3-kinase catalytic subunit gamma isoform; assay: Inhibition of recombinant human full length His-tagged PI3K p110gamma expressed in baculovirus expression system using lipid substrate after 60 mins by ADP-Glo assay
[16] = biological target: PI3-kinase p110-alpha/p85-alpha (Homo sapiens, UniProt P42336); assay: Inhibition of recombinant human full length His-tagged PI3K p110alpha/p85alpha expressed in baculovirus expression system using lipid substrate after 60 mins by ADP-Glo assay
PI3K p110 beta/p85 alpha = PI3K p110 beta/p85 alpha (Homo sapiens, UniProt P42338); assay: Inhibition of recombinant full length human N-terminal His6-tagged PI3K p110beta/p85alpha expressed in baculovirus infected Sf21 cells using lipid substrate after 60 mins by ADP-Glo assay
Sequence of PI3K p110 beta/p85 alpha (P27986 whole entry): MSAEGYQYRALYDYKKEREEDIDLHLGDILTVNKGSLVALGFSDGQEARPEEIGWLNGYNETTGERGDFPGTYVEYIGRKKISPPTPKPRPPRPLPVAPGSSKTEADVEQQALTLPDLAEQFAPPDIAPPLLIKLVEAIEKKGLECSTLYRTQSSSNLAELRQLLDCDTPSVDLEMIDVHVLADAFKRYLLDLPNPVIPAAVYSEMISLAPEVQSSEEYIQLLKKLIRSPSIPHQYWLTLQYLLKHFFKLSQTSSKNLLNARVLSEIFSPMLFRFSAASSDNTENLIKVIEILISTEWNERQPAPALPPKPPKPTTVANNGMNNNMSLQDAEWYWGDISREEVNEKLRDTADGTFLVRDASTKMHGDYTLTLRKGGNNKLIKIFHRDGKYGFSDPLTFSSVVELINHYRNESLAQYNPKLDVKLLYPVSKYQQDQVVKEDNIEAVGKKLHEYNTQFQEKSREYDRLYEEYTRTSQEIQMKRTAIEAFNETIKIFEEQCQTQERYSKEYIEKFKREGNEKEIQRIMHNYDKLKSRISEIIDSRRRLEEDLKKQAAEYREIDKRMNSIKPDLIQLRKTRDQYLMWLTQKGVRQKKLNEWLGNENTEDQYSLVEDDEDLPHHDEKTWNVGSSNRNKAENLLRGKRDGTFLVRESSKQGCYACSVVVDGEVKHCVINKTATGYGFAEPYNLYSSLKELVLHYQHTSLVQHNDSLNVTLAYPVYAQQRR
Sequence of PI3K p110 beta/p85 alpha (P42338 whole entry): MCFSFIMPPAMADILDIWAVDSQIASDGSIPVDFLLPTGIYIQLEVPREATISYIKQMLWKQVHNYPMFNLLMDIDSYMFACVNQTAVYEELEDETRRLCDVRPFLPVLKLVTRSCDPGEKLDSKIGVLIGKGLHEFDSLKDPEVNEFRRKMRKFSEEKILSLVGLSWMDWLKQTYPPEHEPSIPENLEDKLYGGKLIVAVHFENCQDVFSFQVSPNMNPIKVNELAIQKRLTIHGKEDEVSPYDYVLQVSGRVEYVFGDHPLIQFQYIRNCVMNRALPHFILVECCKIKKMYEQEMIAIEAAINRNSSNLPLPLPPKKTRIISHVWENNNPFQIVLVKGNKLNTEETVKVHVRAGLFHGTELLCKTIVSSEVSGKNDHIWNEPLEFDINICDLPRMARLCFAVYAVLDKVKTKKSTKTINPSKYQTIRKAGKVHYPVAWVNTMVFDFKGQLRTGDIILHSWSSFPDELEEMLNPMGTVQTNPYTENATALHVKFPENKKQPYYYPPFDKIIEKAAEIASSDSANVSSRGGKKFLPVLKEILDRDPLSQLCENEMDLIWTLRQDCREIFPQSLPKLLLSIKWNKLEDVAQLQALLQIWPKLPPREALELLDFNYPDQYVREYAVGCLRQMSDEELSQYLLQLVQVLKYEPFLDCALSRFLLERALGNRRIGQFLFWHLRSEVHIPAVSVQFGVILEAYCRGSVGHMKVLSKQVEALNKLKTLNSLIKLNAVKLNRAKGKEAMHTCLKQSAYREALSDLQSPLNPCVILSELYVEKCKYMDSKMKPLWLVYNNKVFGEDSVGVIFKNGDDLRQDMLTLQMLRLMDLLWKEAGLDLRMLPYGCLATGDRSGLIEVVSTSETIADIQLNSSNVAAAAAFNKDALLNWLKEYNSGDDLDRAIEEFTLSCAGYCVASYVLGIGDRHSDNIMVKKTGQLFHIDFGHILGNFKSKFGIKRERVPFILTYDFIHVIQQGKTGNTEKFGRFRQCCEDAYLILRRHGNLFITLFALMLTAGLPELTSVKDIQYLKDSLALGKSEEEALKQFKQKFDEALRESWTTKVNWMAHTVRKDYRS

[17] = biological target: PI3-kinase p110-delta/p85-alpha (Homo sapiens, UniProt O00329); assay: Inhibition of recombinant human full length N-terminal His-tagged PI3K p110delta/p85alpha using lipid substrate after 60 mins by ADP-Glo assay; format: protein-complex assay
Sequence of PI3-kinase p110-delta/p85-alpha (P27986 whole entry): as the sequence (P27986 whole entry) above
Sequence of PI3-kinase p110-delta/p85-alpha (O00329 whole entry): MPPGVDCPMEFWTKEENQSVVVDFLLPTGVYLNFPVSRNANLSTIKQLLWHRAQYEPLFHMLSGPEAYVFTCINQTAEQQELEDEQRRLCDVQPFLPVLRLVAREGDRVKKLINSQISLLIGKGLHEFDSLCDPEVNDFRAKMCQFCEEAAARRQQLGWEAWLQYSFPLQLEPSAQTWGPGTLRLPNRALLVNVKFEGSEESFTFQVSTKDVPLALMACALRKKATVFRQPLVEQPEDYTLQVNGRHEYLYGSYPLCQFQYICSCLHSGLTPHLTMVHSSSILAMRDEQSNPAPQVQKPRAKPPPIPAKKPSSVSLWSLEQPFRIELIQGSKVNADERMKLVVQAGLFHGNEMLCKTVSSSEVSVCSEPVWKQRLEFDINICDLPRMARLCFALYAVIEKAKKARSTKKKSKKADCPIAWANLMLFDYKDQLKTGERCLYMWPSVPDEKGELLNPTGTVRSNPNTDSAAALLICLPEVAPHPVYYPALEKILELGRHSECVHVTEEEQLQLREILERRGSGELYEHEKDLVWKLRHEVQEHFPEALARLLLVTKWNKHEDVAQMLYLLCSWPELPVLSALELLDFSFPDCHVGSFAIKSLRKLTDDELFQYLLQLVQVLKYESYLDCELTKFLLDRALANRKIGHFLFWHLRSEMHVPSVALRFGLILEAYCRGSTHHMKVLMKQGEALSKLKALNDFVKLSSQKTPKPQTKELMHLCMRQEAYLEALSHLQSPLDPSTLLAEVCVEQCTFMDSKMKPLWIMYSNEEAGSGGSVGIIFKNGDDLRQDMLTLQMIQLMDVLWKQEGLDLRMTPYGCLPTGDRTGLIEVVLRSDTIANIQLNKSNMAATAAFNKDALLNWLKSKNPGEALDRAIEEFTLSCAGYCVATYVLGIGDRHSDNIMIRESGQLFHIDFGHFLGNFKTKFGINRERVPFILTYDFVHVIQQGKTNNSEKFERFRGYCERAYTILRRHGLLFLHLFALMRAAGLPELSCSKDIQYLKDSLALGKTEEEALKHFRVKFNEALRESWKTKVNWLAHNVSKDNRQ

Sequence of Phosphatidylinositol 4,5-bisphosphate 3-kinase catalytic subunit beta isoform (P42338 whole entry, canonical isoform): as the sequence (P42338 whole entry) above

SMILES	inhibition [4]	IC50 (HL-60 [5])	IC50 (Raji [7])	IC50 (K562 [8])	other results
COc1ccc(-c2ccc3ncc4c(c3c2)n(-c2ccc(N3CCNCC3)c(C(F)(F)F)c2)c(=O)n4C)cn1 [BGT-226 FREE BASE]					IC50 [1]: 0.063 µM; IC50 [2]: 0.004 µM; IC50 [3]: 0.038 µM
COc1ccc(-c2ccc3oc4ccc(=O)n(-c5ccc(NC(=O)CN6CCN(C)CC6)cc5)c4c3c2)cn1	inactive	3.2 µM	9.72 µM	4.7 µM	IC50 [6]: 0.139 µM
C=CC(=O)N1CCC[C@@H](n2nc(-c3ccc(Oc4ccccc4)cc3)c3c(N)ncnc32)C1 [IBRUTINIB]		8 µM	14.2 µM	7.5 µM	
COc1ccc(-c2ccc3oc4ccc(=O)n(-c5ccc(NC(=O)C(F)(F)F)cc5)c4c3c2)cn1				17 µM	Activity (Raji [9]): 10%; Activity (HL-60 [10]): 35.4%
COc1ccc(-c2ccc3oc4ccc(=O)n(-c5ccc(N)cc5)c4c3c2)cn1					Activity (Raji [9]): 41.5%; Activity (K562 [11]): 17.6%; Activity (HL-60 [10]): 21.5%
C=CC(=O)Nc1ccc(-n2c(=O)ccc3oc4ccc(-c5ccc(O)cc5)cc4c32)cc1	4.2%	3.9 µM	3.9 µM	5.7 µM	
Cn1c(=O)n(-c2ccc(C(C)(C)C#N)cc2)c2c3cc(-c4cnc5ccccc5c4)ccc3ncc21 [DACTOLISIB]	64.4%	1 µM	4.3 µM	5.7 µM	Reduction in Akt Ser-473 phosphorylation (K562 [12]): Active
C=CC(=O)Nc1ccc(-n2c(=O)ccc3oc4ccc(-c5cnn(C)c5)cc4c32)cc1	4.8%	12.6 µM	2.4 µM	9.6 µM	IC50 [6]: 0.217 µM; Reduction in Akt Ser-473 phosphorylation (K562 [12]): Active
CNCC(=O)Nc1ccc(-n2c(=O)ccc3oc4ccc(-c5ccc(OC)nc5)cc4c32)cc1		3.2 µM	6.26 µM	3.5 µM	
C=CC(=O)N1CCc2ccc(-n3c(=O)ccc4cnc5ccc(-c6cnn(C)c6)cc5c43)cc21					IC50 [13]: 0.69 µM
COc1ccc(-c2ccc3oc4ccc(=O)n(-c5ccc(NCC(=O)O)cc5)c4c3c2)cn1		12.7 µM	39.5 µM		Activity (K562 [11]): 46%
C=CC(=O)Nc1ccc(-n2c(=O)ccc3oc4ccc(-c5cccc6[nH]ccc56)cc4c32)cc1		7.3 µM	15.7 µM	10.2 µM	
COc1ccc(-c2ccc3oc4ccc(=O)n(-c5ccc(NS(C)(=O)=O)cc5)c4c3c2)cn1		15.5 µM	16.7 µM	16.2 µM	
COc1ccc(-c2ccc3oc4ccc(=O)n(-c5ccc(NC(=O)CN6CCCCC6)cc5)c4c3c2)cn1	inactive	4.9 µM	8.01 µM	2.6 µM	IC50 [6]: 0.106 µM; Reduction in Akt Ser-473 phosphorylation (K562 [12]): Active
C=CC(=O)Nc1ccc(-n2c(=O)ccc3oc4ccc(-c5ccc(OC)cc5)cc4c32)cc1					Activity (Raji [9]): inactive; Activity (K562 [11]): 28.3%
C=CC(=O)Nc1ccc(-n2c(=O)ccc3oc4ccc(-c5cccc([N+](=O)[O-])c5)cc4c32)cc1		28.2 µM	25 µM		Activity (K562 [11]): 39%
COc1ccc(-c2ccc3oc4ccc(=O)n(-c5ccc(NC(=O)CN6CCNCC6)cc5)c4c3c2)cn1	inactive	5.5 µM	5.84 µM	1.3 µM	Reduction in Akt Ser-473 phosphorylation (K562 [12]): Active
COc1ccc(-c2ccc3oc4ccc(=O)n(-c5ccc([N+](=O)[O-])cc5)c4c3c2)cn1					Activity (Raji [9]): inactive; Activity (K562 [11]): 28.8%; Activity (HL-60 [10]): inactive
COc1ccc(-c2ccc3oc4ccc(=O)n(-c5ccc(NC(=O)CN(C)C)cc5)c4c3c2)cn1	inactive	4 µM	12.8 µM	4.1 µM	IC50 [6]: 0.237 µM; Reduction in Akt Ser-473 phosphorylation (K562 [12]): Active
C=CC(=O)Nc1ccc(-n2c(=O)ccc3oc4ccc(-c5ccc(C(=O)O)cc5)cc4c32)cc1					Activity (Raji [9]): 38%; Activity (K562 [11]): inactive; Activity (HL-60 [10]): 22.2%
C=CC(=O)Nc1ccc(-n2c(=O)ccc3oc4ccc(-c5ccc(OC)nc5)cc4c32)cc1	inactive	17.9 µM		31 µM	Activity (Raji [9]): 35%; Reduction in Akt Ser-473 phosphorylation (K562 [12]): Active
C=CC(=O)Nc1ccc(-n2c(=O)ccc3oc4ccc(-c5cccc(N)c5)cc4c32)cc1	inactive	10 µM	5.3 µM	6.9 µM	
COc1ccc(-c2ccc3oc4ccc(=O)n(-c5ccc(NC(C)=O)cc5)c4c3c2)cn1			39 µM		Activity (K562 [11]): 47.5%
C=CC(=O)Nc1ccc(-n2c(=O)ccc3oc4ccc(-c5cccnc5)cc4c32)cc1	45.8%	4.2 µM	5.2 µM	11.1 µM	IC50 [6]: 0.136 µM; IC50 [14]: 0.228 µM; Reduction in Akt Ser-473 phosphorylation (K562 [12]): Active; IC50 [15]: 0.684 µM; IC50 [16]: 0.254 µM; IC50 (PI3K p110 beta/p85 alpha): 0.838 µM; IC50 [17]: 0.275 µM
CCN(CC)CC(=O)Nc1ccc(-n2c(=O)ccc3oc4ccc(-c5ccc(OC)nc5)cc4c32)cc1		8.4 µM	15.3 µM	5.9 µM	
COc1ccc(-c2ccc3oc4ccc(=O)n(-c5ccc(NC(=O)CN6CCCC6)cc5)c4c3c2)cn1	inactive	5.4 µM	11.3 µM	6.5 µM	IC50 [6]: 0.183 µM
COc1ccc(-c2ccc3oc4ccc(=O)n(-c5ccc(NC(=O)CN6CCOCC6)cc5)c4c3c2)cn1	11.6%	4 µM	13.2 µM	10 µM	IC50 [6]: 0.2 µM
CCOC(=O)CNc1ccc(-n2c(=O)ccc3oc4ccc(-c5ccc(OC)nc5)cc4c32)cc1					Activity (Raji [9]): inactive; Activity (K562 [11]): 29.4%; Activity (HL-60 [10]): 46%
